Measured values taken from article PMC11538706, “Integrated Electrochemical Aptamer Biosensing and Colorimetric pH Monitoring via Hydrogel Microneedle Assays for Assessing Antibiotic Treatment” (Advanced Science, 2024).
Where two headings read alike, the source gives them in different places.

How the values were obtained:
GEN aptamer = experiment: Specificity test of GEN aptamer-modified Flex electrode; format: binding; conditions: buffer 1X PBS + 2 mM MgCl2; SWV; TOBI 10 µM, DOX 100 ng/mL
Method: Additionally, employing the “dual‐frequency” method reduced the batch‐to‐batch variability and improved the sensor response (Figure S6, Supporting Information).
To determine the signal‐on and signal‐off frequencies for each of these aptamers, the aptamer‐modified Flex electrode was first dipped in a blank buffer and scanned (via SWV) at a range of frequencies (Ref). […] The sensor response at each target concentration and for each frequency was calculated via (I – I0) / I0, where “I” is the observed current (SWV peak height) at each condition, and “I0” is the observed current in the blank buffer. As a result, the frequency of 5 and 100 were selected as the signal‐off and signal‐on for the VAN aptamer. […] Afterward (and for the rest of the experiments), the sensor's response is defined as (I – I0) / I0, where the “I” represents the dual‐frequency current (I signal‐on / I signal‐off) at the experimental condition and “I0” represents the dual frequency current (I signal‐on / I signal‐off) of the (0 µM) buffer. To validate the selectivity of HMN‐Flex for VAN/GEN the aptamer‐functionalized Flex electrodes were subjected to non‐specific targets commonly present in ISF and their responses were recorded.

[1] = PK analysis: Cmax and AUC from PK models fitted to serum and ISF concentrations; format: in vivo, Male Sprague Dawley rats; conditions: male, Sprague Dawley, rat, iv
Method: The estimation of PK parameters, such as the area under the time‐concentration level curve (AUC) and the peak concentrations (Cmax) was performed using two PK models describing the observed patterns of serum and ISF concentrations (Figure S13, Supporting Information) and the Spearman correlation test was used to assess the correlation between PK parameters in serum and ISF.^[ [53] ^] The ISF VAN concentrations used for PK analysis were drawn by interpolating the sensor's response in the VAN calibration curve. The VAN AUC and Cmax from ISF and serum were correlated with correlation values of 0.82 and 0.79, respectively (Figure 5c‐iii).
We also employed the HMN‐Flex assay for detecting GEN in ISF and drawing its PK profile. […] For this purpose, the HMN‐Flex response was monitored every 10 min up to 90 min, followed by two other measurements at 6‐ and 24‐hours (h) postinjection. […] To the best of our knowledge, this is the first time reporting the changes in ISF GEN levels in the rat animal models. […] Importantly, the PK measurements obtained using HMN‐Flex closely matched those derived from conventional blood‐based measurements while the high temporal resolution offered by the HMN‐Flex assay can potentially revolutionize the current TDM.
Two distinct PK models were utilized for this purpose: one for describing antibiotic concentrations in serum, using a 1‐compartment PK model with linear elimination, and another for ISF, consisting of three compartments in series. The model fitting process was carried out using the first‐order conditional estimation method with interaction (FOCEI) routine in Nonmem v7.4, and subsequent PK profiles were simulated from the fitted models using the mrgsolve package in R. AUC and Cmax values were directly derived from the simulated PK profiles, and the correlation between these PK parameters in serum and ISF was assessed using the Spearman correlation test.

[2] = parameters: method as in PMID 24972859, PMID 29019915; conditions: cited from earlier work

With `COc1cccc2c1C(=O)c1c(O)c3c(c(O)c1C2=O)C[C@@](O)(C(=O)CO)C[C@@H]3O[C@H]1C[C@H](N)[C@H](O)[C@H](C)O1` [DOX, Doxorubicin] the “GEN sensor response to non-specific targets” value (GEN aptamer) was “did not produce a response”.
`CNC(C)C1CCC(N)C(OC2C(N)CC(N)C(OC3OCC(C)(O)C(NC)C3O)C2O)O1` (centres unmarked) [GEN, gentamicin] showed an AUC ([1]; ISF, 50 mg/kg, GEN, Rat # 4, dose 50 mg/kg i.v., read-out: ISF AUC (converted)) of 1070 µM·h, a Cmax ([1]; ISF, 50 mg/kg, GEN, Rat # 4, dose 50 mg/kg i.v., read-out: ISF Cmax) of 221 µM and an AUC ([1]; ISF, 50 mg/kg, GEN, Rat # 5, dose 50 mg/kg i.v., read-out: ISF AUC (converted)) of 1230 µM·h. The Cmax ([1]; ISF, 50 mg/kg, GEN, Rat # 5, dose 50 mg/kg i.v., read-out: ISF Cmax) was 387 µM, the AUC ([1]; ISF, 100 mg/kg, GEN, Rat # 6, dose 100 mg/kg i.v., read-out: ISF AUC (converted)) was 3490 µM·h and the Cmax ([1]; ISF, 100 mg/kg, GEN, Rat # 6, dose 100 mg/kg i.v., read-out: ISF Cmax) was 886 µM. It also gave an AUC ([1]; interstitial fluid (ISF), 50 mg/kg, GEN, Rat # 2, dose 50 mg/kg i.v., read-out: ISF AUC (converted)) of 509 µM·h, a Cmax ([1]; interstitial fluid (ISF), 50 mg/kg, GEN, Rat # 2, dose 50 mg/kg i.v., read-out: ISF Cmax) of 148 µM and an AUC ([1]; interstitial fluid (ISF), 50 mg/kg, GEN, Rat # 3, dose 50 mg/kg i.v., read-out: ISF AUC (converted)) of 776 µM·h. The Cmax ([1]; interstitial fluid (ISF), 50 mg/kg, GEN, Rat # 3, dose 50 mg/kg i.v., read-out: ISF Cmax) was 253 µM, the AUC ([1]; interstitial fluid (ISF), 100 mg/kg, GEN, Rat # 1, dose 100 mg/kg i.v., read-out: ISF AUC (converted)) was 848 µM·h and the Cmax ([1]; interstitial fluid (ISF), 100 mg/kg, GEN, Rat # 1, dose 100 mg/kg i.v., read-out: ISF Cmax) was 279 µM. It also gave an AUC ([1]; interstitial fluid (ISF), 100 mg/kg, GEN, Rat # 2, dose 100 mg/kg i.v., read-out: ISF AUC (converted)) of 827 µM·h, a Cmax ([1]; interstitial fluid (ISF), 100 mg/kg, GEN, Rat # 2, dose 100 mg/kg i.v., read-out: ISF Cmax) of 324 µM and an AUC ([1]; serum, 50 mg/kg, GEN, Rat # 2, dose 50 mg/kg i.v., read-out: Serum AUC (converted)) of 467 µM·h. For the same compound, the Cmax ([1]; serum, 50 mg/kg, GEN, Rat # 2, dose 50 mg/kg i.v., read-out: Serum Cmax) was 680 µM, the AUC ([1]; serum, 50 mg/kg, GEN, Rat # 3, dose 50 mg/kg i.v., read-out: Serum AUC (converted)) was 321 µM·h and the Cmax ([1]; serum, 50 mg/kg, GEN, Rat # 3, dose 50 mg/kg i.v., read-out: Serum Cmax) was 807 µM. For the same compound, the AUC ([1]; serum, 50 mg/kg, GEN, Rat # 4, dose 50 mg/kg i.v., read-out: Serum AUC (converted)) was 108 µM·h, the Cmax ([1]; serum, 50 mg/kg, GEN, Rat # 4, dose 50 mg/kg i.v., read-out: Serum Cmax) was 268 µM and the AUC ([1]; serum, 50 mg/kg, GEN, Rat # 5, dose 50 mg/kg i.v., read-out: Serum AUC (converted)) was 2380 µM·h. The Cmax ([1]; serum, 50 mg/kg, GEN, Rat # 5, dose 50 mg/kg i.v., read-out: Serum Cmax) was 4100 µM, the AUC ([1]; serum, 100 mg/kg, GEN, Rat # 1, dose 100 mg/kg i.v., read-out: Serum AUC (converted)) was 2410 µM·h and the Cmax ([1]; serum, 100 mg/kg, GEN, Rat # 1, dose 100 mg/kg i.v., read-out: Serum Cmax) was 1870 µM. It also gave an AUC ([1]; serum, 100 mg/kg, GEN, Rat # 2, dose 100 mg/kg i.v., read-out: Serum AUC (converted)) of 1120 µM·h, a Cmax ([1]; serum, 100 mg/kg, GEN, Rat # 2, dose 100 mg/kg i.v., read-out: Serum Cmax) of 1320 µM and an AUC ([1]; serum, 100 mg/kg, GEN, Rat # 6, dose 100 mg/kg i.v., read-out: Serum AUC (converted)) of 3380 µM·h. For the same compound, the Cmax ([1]; serum, 100 mg/kg, GEN, Rat # 6, dose 100 mg/kg i.v., read-out: Serum Cmax) was 4280 µM and the protein binding [2] was 30%.
For `NC[C@H]1O[C@H](O[C@H]2[C@H](O)[C@@H](O[C@H]3O[C@H](CO)[C@@H](O)[C@H](N)[C@H]3O)[C@H](N)C[C@@H]2N)[C@H](N)C[C@@H]1O` [TOBI, Tobramycin], the “GEN sensor response to non-specific targets” value (GEN aptamer) was “increase in current”.
With `CN[C@H](CC(C)C)C(=O)N[C@H]1C(=O)N[C@@H](CC(N)=O)C(=O)N[C@H]2C(=O)N[C@H]3C(=O)N[C@H](C(=O)N[C@H](C(=O)O)c4cc(O)cc(O)c4-c4cc3ccc4O)[C@H](O)c3ccc(c(Cl)c3)Oc3cc2cc(c3O[C@@H]2O[C@H](CO)[C@@H](O)[C@H](O)[C@H]2O[C@H]2C[C@](C)(N)[C@H](O)[C@H](C)O2)Oc2ccc(cc2Cl)[C@H]1O` [VAN, vancomycin] the AUC ([1]; in vivo, 15 mg/kg, VAN, Rat # 1, dose 15 mg/kg i.v., read-out: ISF AUC (converted)) was 37 µM·h, the Cmax ([1]; in vivo, 15 mg/kg, VAN, Rat # 1, dose 15 mg/kg i.v., read-out: ISF Cmax) was 28.3 µM and the AUC ([1]; in vivo, 15 mg/kg, VAN, Rat # 1, dose 15 mg/kg i.v., read-out: Serum AUC (converted)) was 59.1 µM·h. It also gave a Cmax ([1]; in vivo, 15 mg/kg, VAN, Rat # 1, dose 15 mg/kg i.v., read-out: Serum Cmax) of 117 µM, an AUC ([1]; in vivo, 15 mg/kg, VAN, Rat # 2, dose 15 mg/kg i.v., read-out: ISF AUC (converted)) of 8.72 µM·h and a Cmax ([1]; in vivo, 15 mg/kg, VAN, Rat # 2, dose 15 mg/kg i.v., read-out: ISF Cmax) of 8.4 µM. The AUC ([1]; in vivo, 15 mg/kg, VAN, Rat # 2, dose 15 mg/kg i.v., read-out: Serum AUC (converted)) was 50.8 µM·h, the Cmax ([1]; in vivo, 15 mg/kg, VAN, Rat # 2, dose 15 mg/kg i.v., read-out: Serum Cmax) was 99.9 µM and the AUC ([1]; in vivo, 45 mg/kg, VAN, Rat # 1, dose 45 mg/kg i.v., read-out: ISF AUC (converted)) was 139 µM·h. It also gave a Cmax ([1]; in vivo, 45 mg/kg, VAN, Rat # 1, dose 45 mg/kg i.v., read-out: ISF Cmax) of 94.5 µM, an AUC ([1]; in vivo, 45 mg/kg, VAN, Rat # 1, dose 45 mg/kg i.v., read-out: Serum AUC (converted)) of 216 µM·h and a Cmax ([1]; in vivo, 45 mg/kg, VAN, Rat # 1, dose 45 mg/kg i.v., read-out: Serum Cmax) of 254 µM. The AUC ([1]; in vivo, 45 mg/kg, VAN, Rat # 2, dose 45 mg/kg i.v., read-out: ISF AUC (converted)) was 51.3 µM·h, the Cmax ([1]; in vivo, 45 mg/kg, VAN, Rat # 2, dose 45 mg/kg i.v., read-out: ISF Cmax) was 36.5 µM and the AUC ([1]; in vivo, 45 mg/kg, VAN, Rat # 2, dose 45 mg/kg i.v., read-out: Serum AUC (converted)) was 184 µM·h. For the same compound, the Cmax ([1]; in vivo, 45 mg/kg, VAN, Rat # 2, dose 45 mg/kg i.v., read-out: Serum Cmax) was 239 µM.
